Data reported in the supplement of paper PMC10307832.

Key:
Experiment in all cases: relative viability (nuclei count vs DMSO), 5 days (fraction); higher = more cells survive
Pictilisib + Crizotinib = compound: CS(=O)(=O)N1CCN(Cc2cc3nc(-c4cccc5[nH]ncc45)nc(N4CCOCC4)c3s2)CC1 [Pictilisib] + C[C@@H](Oc1cc(-c2cnn(C3CCNCC3)c2)cnc1N)c1c(Cl)ccc(F)c1Cl [Crizotinib] (partner 1 µM)
In short: (§1)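 Values are medians from duplicate plates. Each reflects relative viability, defined as the nuclei count of treated wells over that of vehicle wells. Lung cancer cell lines in 1536-well plates were pin-tool dosed one day after seeding with one drug alone or with a fixed anchor-drug dose plus five library-drug doses (not always all listed) in √10 steps, then fixed, stained and imaged at 4× after 5 days.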

MK-2206 + Olaparib = compound: NC1(c2ccc(-c3nc4ccn5c(=O)[nH]nc5c4cc3-c3ccccc3)cc2)CCC1 [MK-2206] + O=C(c1cc(Cc2n[nH]c(=O)c3ccccc23)ccc1F)N1CCN(C(=O)C2CC2)CC1 [Olaparib] (partner 8 µM)
In short: as §1

MK-2206 + Palbociclib = compound: NC1(c2ccc(-c3nc4ccn5c(=O)[nH]nc5c4cc3-c3ccccc3)cc2)CCC1 [MK-2206] + CC(=O)c1c(C)c2cnc(Nc3ccc(N4CCNCC4)cn3)nc2n(C2CCCC2)c1=O [Palbociclib] (partner 0.5 µM)
In short: as §1

MK-2206 + Pictilisib = compound: NC1(c2ccc(-c3nc4ccn5c(=O)[nH]nc5c4cc3-c3ccccc3)cc2)CCC1 [MK-2206] + CS(=O)(=O)N1CCN(Cc2cc3nc(-c4cccc5[nH]ncc45)nc(N4CCOCC4)c3s2)CC1 [Pictilisib] (partner 1 µM)
In short: as §1

MK-2206 + Dasatinib = compound: NC1(c2ccc(-c3nc4ccn5c(=O)[nH]nc5c4cc3-c3ccccc3)cc2)CCC1 [MK-2206] + Cc1nc(Nc2ncc(C(=O)Nc3c(C)cccc3Cl)s2)cc(N2CCN(CCO)CC2)n1 [Dasatinib] (partner 0.075 µM)
In short: as §1

Cell Line	relative viability (Pictilisib + Crizotinib; first compound 0.02 µM)	relative viability (Pictilisib + Crizotinib; first compound 0.06325 µM)	relative viability (Pictilisib + Crizotinib; first compound 0.6325 µM)	relative viability (Pictilisib + Crizotinib; first compound 2 µM)	relative viability (MK-2206 + Olaparib; first compound 0.01 µM)	relative viability (MK-2206 + Olaparib; first compound 0.03162 µM)	relative viability (MK-2206 + Olaparib; first compound 0.3162 µM)	relative viability (MK-2206 + Olaparib; first compound 1 µM)	relative viability (MK-2206 + Palbociclib; first compound 0.01 µM)	relative viability (MK-2206 + Palbociclib; first compound 0.03162 µM)	relative viability (MK-2206 + Palbociclib; first compound 0.3162 µM)	relative viability (MK-2206 + Palbociclib; first compound 1 µM)	relative viability (MK-2206 + Pictilisib; first compound 0.01 µM)	relative viability (MK-2206 + Pictilisib; first compound 0.03162 µM)	relative viability (MK-2206 + Pictilisib; first compound 0.3162 µM)	relative viability (MK-2206 + Pictilisib; first compound 1 µM)	relative viability (MK-2206 + Dasatinib; first compound 0.01 µM)	relative viability (MK-2206 + Dasatinib; first compound 0.03162 µM)	relative viability (MK-2206 + Dasatinib; first compound 0.3162 µM)	relative viability (MK-2206 + Dasatinib; first compound 1 µM)
LU99A	0.56	0.545	0.44	0.346	0.283	0.231	0.251	0.287	0.41	0.419	0.413	0.35	0.327	0.314	0.261	0.289	0.524	0.733	0.48	0.498
LXF-289	0.862	0.837	0.843	0.752	1.05	1.04	1.09	1.06	0.581	0.628	0.594	0.576	0.755	0.821	0.748	0.705	0.212	0.251	0.254	0.203
NCI-H23	0.424	0.592	0.344	0.354	0.302	0.326	0.255	0.285	0.555	0.5	0.427	0.459	0.528	0.491	0.444	0.464	0.808	0.845	0.787	0.423
NCI-H322M	0.834	0.936	0.878	0.834	0.778	0.806	0.782	0.874	0.51	0.469	0.519	0.527	0.509	0.529	0.489	0.511	0.258	0.268	0.288	0.284
NCI-H358	0.658	0.455	0.607	0.408	0.61	0.641	0.541	0.56	0.16	0.124	0.138	0.141	0.378	0.333	0.355	0.347	0.169	0.167	0.15	0.147
NCI-H441	0.513	0.632	0.504	0.388	0.588	0.622	0.541	0.338	0.226	0.206	0.207	0.167	0.501	0.467	0.424	0.48	0.566	0.503	0.501	0.422
NCI-H460	0.956	0.945	0.501	0.0993	0.397	0.465	0.484	0.5	0.137	0.224	0.142	0.0552	0.355	0.307	0.294	0.222	0.417	0.579	0.37	0.338
